Key:
Type in all cases: in vivo
[1] = system: barnyardgrass (Echinochloa crus-galli); assay: Test C greenhouse herbicide test, pre- and postemergence
Procedure, shortened: (§1)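 Visual 0–100 injury score (100 = complete control) taken against untreated controls after 13–15 d in greenhouse. Test chemicals, formulated in solvent plus surfactant, applied preemergence to seeds in loam–sand soil or postemergence to 1- to 4-leaf plants (2–18 cm).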

[2] = system: blackgrass (Alopecurus myosuroides); assay: as above
Procedure, shortened: as §1

corn (Zea mays) = assay: as above
Procedure, shortened: as §1

[3] = system: crabgrass, large (large crabgrass, Digitaria sanguinalis); assay: as above
Procedure, shortened: as §1

[4] = system: foxtail, giant (giant foxtail, Setaria faberii); assay: as above
Procedure, shortened: as §1

[5] = system: johnsongrass (Sorghum halepense); assay: as above
Procedure, shortened: as §1

[6] = system: lambsquarters (Chenopodium album); assay: as above
Procedure, shortened: as §1

[7] = system: morningglory (Ipomoea coccinea); assay: as above
Procedure, shortened: as §1

[8] = system: nutsedge, yellow (yellow nutsedge, Cyperus esculentus); assay: as above
Procedure, shortened: as §1

[9] = system: oilseed rape (Brassica napus); assay: as above
Procedure, shortened: as §1

[10] = system: pigweed (Amaranthus retroflexus); assay: as above
Procedure, shortened: as §1

[11] = system: velvetleaf (Abutilon theophrasti); assay: as above
Procedure, shortened: as §1

[12] = system: waterhemp (common waterhemp, Amaranthus rudis); assay: as above
Procedure, shortened: as §1

[13] = system: wheat (winter wheat, Triticum aestivum); assay: as above
Procedure, shortened: as §1

kochia (Kochia scoparia) = assay: Test C greenhouse herbicide test, postemergence; conditions: for Plant response rating, Kochia: Postemergence; for Kochia plant response rating: postemergence, 62 g ai/ha
Procedure, shortened: (§2)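 Ratings are visual scores from 0 (no effect) to 100 (complete control), made against controls 13–15 d after treatment. Postemergence sprays were applied in the greenhouse to plants 2–18 cm tall (1- to 4-leaf stage) in peat-moss/vermiculite potting medium.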

[14] = system: oat, wild (wild oat, Avena fatua); assay: Test C greenhouse herbicide test, postemergence; conditions: for Plant response rating, Oat, Wild: Postemergence; for Oat, Wild plant response rating: postemergence, 62 g ai/ha
Procedure, shortened: as §2

[15] = Postemergence, 31 g ai/ha, 0 to 100 scale (0 no effect, 100 complete control)
[16] = Postemergence, 125 g ai/ha, scale 0 to 100, 0 is no effect, 100 is complete control
[17] = Postemergence, 250 g ai/ha, scale 0 to 100, 0 no effect, 100 complete control, 13 to 15 d
[18] = Preemergence, 31 g ai/ha, scale 0 to 100, 0 is no effect, 100 is complete control
[19] = Preemergence, 62 g ai/ha, scale 0 to 100, 0 is no effect, 100 is complete control
[20] = Preemergence, 125 g ai/ha, scale 0 to 100, 0 is no effect, 100 is complete control
[21] = Preemergence, 250 g ai/ha, scale 0 to 100 (0 no effect, 100 complete control)
[22] = postemergence, 62 g ai/ha, scale 0 to 100, 0 no effect, 100 complete control
[23] = 125 g ai/ha, scale 0 to 100, 0 is no effect, 100 is complete control
[24] = 250 g ai/ha, scale 0 to 100, 0 no effect, 100 complete control, 13 to 15 d
[25] = scale 0 to 100, 0 no effect, 100 complete control

CC(=O)Oc1c(C)nn(C)c(=O)c1-c1ccc(F)c2ccccc12 [Compound 90]
20: Plant response rating, Johnsongrass [5, 17]
98: Plant response rating, Lambsquarters [6, 16] | Lambsquarters plant response rating [6, 22] | Plant response rating, Morningglory [7, 20] | Morningglory plant response rating [7, 21] | Plant response rating, Velvetleaf [11, 16] | Plant response rating, Velvetleaf [11, 17]
70: Plant response rating, Barnyardgrass [1, 17] | Plant response rating, Crabgrass, Large [3, 19] | Oat, Wild plant response rating [14, 25]
80: Plant response rating, Lambsquarters [6, 19] | Nutsedge, Yellow plant response rating [8, 22] | Pigweed plant response rating [10, 22]
15: Blackgrass plant response rating [2, 22] | Crabgrass, Large plant response rating [3, 22]
60: Plant response rating, Johnsongrass [5, 20]
35: Plant response rating, Barnyardgrass [1, 18] | Barnyardgrass plant response rating [1, 22] | Plant response rating, Crabgrass, Large [3, 16] | Plant response rating, Crabgrass, Large [3, 18] | Plant response rating, Oilseed Rape [9, 19] | Plant response rating, Wheat [13, 20]
85: Crabgrass, Large plant response rating [3, 21] | Plant response rating, Lambsquarters [6, 20] | Plant response rating, Morningglory [7, 18] | Plant response rating, Morningglory [7, 19] | Plant response rating, Nutsedge, Yellow [8, 17] | Plant response rating, Nutsedge, Yellow [8, 20] | Plant response rating, Velvetleaf [11, 18]
55: Blackgrass plant response rating [2, 21] | Plant response rating, Foxtail, Giant [4, 16] | Plant response rating, Johnsongrass [5, 19] | Plant response rating, Nutsedge, Yellow [8, 18]
90: Plant response rating, Foxtail, Giant [4, 20] | Plant response rating, Nutsedge, Yellow [8, 16] | Nutsedge, Yellow plant response rating [8, 21] | Oilseed Rape plant response rating [9, 21] | Plant response rating, Velvetleaf [11, 19] | Plant response rating, Waterhemp [12, 19] | Plant response rating, Oat, Wild [14, 23]
50: Plant response rating, Barnyardgrass [1, 16] | Plant response rating, Blackgrass [2, 20] | Plant response rating, Johnsongrass [5, 18] | Plant response rating, Oilseed Rape [9, 20]
25: Plant response rating, Blackgrass [2, 16] | Plant response rating, Blackgrass [2, 18] | Plant response rating, Corn (corn (Zea mays); [17]) | Foxtail, Giant plant response rating [4, 22]
65: Plant response rating, Barnyardgrass [1, 19] | Johnsongrass plant response rating [5, 21]
40: Plant response rating, Blackgrass [2, 17] | Plant response rating, Blackgrass [2, 19] | Wheat plant response rating [13, 21]
45: Plant response rating, Nutsedge, Yellow [8, 19]
5: Corn plant response rating (corn (Zea mays); [15]) | Plant response rating, Corn (corn (Zea mays); [20]) | Plant response rating, Oilseed Rape [9, 17] | Plant response rating, Wheat [13, 18]
10: Blackgrass plant response rating [2, 15] | Plant response rating, Corn (corn (Zea mays); [16]) | Corn plant response rating (corn (Zea mays); [22]) | Plant response rating, Johnsongrass [5, 16] | Johnsongrass plant response rating [5, 22] | Plant response rating, Wheat [13, 16] | Wheat plant response rating [13, 22]
95: Barnyardgrass plant response rating [1, 21] | Foxtail, Giant plant response rating [4, 21] | Plant response rating, Pigweed [10, 16] | Plant response rating, Velvetleaf [11, 20] | Velvetleaf plant response rating [11, 21] | Plant response rating, Oat, Wild [14, 24]
75: Plant response rating, Barnyardgrass [1, 20] | Plant response rating, Crabgrass, Large [3, 17] | Plant response rating, Crabgrass, Large [3, 20] | Plant response rating, Foxtail, Giant [4, 17] | Plant response rating, Foxtail, Giant [4, 18] | Plant response rating, Foxtail, Giant [4, 19] | Plant response rating, Lambsquarters [6, 18] | Velvetleaf plant response rating [11, 22] | Plant response rating, Waterhemp [12, 18]
0: Plant response rating, Corn (corn (Zea mays); [18]) | Plant response rating, Corn (corn (Zea mays); [19]) | Plant response rating, Oilseed Rape [9, 16] | Oilseed Rape plant response rating [9, 22] | Plant response rating, Wheat [13, 19]
30: Barnyardgrass plant response rating [1, 15] | Corn plant response rating (corn (Zea mays); [21]) | Plant response rating, Oilseed Rape [9, 18] | Plant response rating, Wheat [13, 17]
100: Plant response rating, Lambsquarters [6, 17] | Lambsquarters plant response rating [6, 21] | Plant response rating, Morningglory [7, 16] | Plant response rating, Morningglory [7, 17] | Morningglory plant response rating [7, 22] | Plant response rating, Pigweed [10, 17] | Plant response rating, Pigweed [10, 18] | Plant response rating, Pigweed [10, 19] | Plant response rating, Pigweed [10, 20] | Pigweed plant response rating [10, 21] | Plant response rating, Waterhemp [12, 16] | Plant response rating, Waterhemp [12, 17] | Plant response rating, Waterhemp [12, 20] | Waterhemp plant response rating [12, 21] | Waterhemp plant response rating [12, 22] | Plant response rating, Kochia (kochia (Kochia scoparia); [23]) | Plant response rating, Kochia (kochia (Kochia scoparia); [24]) | Kochia plant response rating (kochia (Kochia scoparia); [25])

CC(=O)Oc1c(C#N)nn(C)c(=O)c1-c1c(C)ccc2ccccc12 [Compound 98]
30: Blackgrass plant response rating [2, 22] | Plant response rating, Wheat [13, 17]
98: Plant response rating, Barnyardgrass [1, 16] | Plant response rating, Barnyardgrass [1, 17] | Plant response rating, Foxtail, Giant [4, 16]
0: Corn plant response rating (corn (Zea mays); [22]) | Oilseed Rape plant response rating [9, 22]
70: Plant response rating, Blackgrass [2, 17] | Plant response rating, Crabgrass, Large [3, 17] | Velvetleaf plant response rating [11, 22]
85: Barnyardgrass plant response rating [1, 22]
60: Barnyardgrass plant response rating [1, 15] | Plant response rating, Nutsedge, Yellow [8, 17] | Plant response rating, Kochia (kochia (Kochia scoparia); [23])
25: Crabgrass, Large plant response rating [3, 22] | Plant response rating, Oilseed Rape [9, 17]
5: Blackgrass plant response rating [2, 15] | Corn plant response rating (corn (Zea mays); [15]) | Johnsongrass plant response rating [5, 22]
15: Plant response rating, Corn (corn (Zea mays); [16]) | Plant response rating, Corn (corn (Zea mays); [17]) | Nutsedge, Yellow plant response rating [8, 22] | Plant response rating, Wheat [13, 16]
10: Plant response rating, Johnsongrass [5, 16] | Plant response rating, Johnsongrass [5, 17] | Plant response rating, Oilseed Rape [9, 16] | Wheat plant response rating [13, 22]
50: Plant response rating, Blackgrass [2, 16] | Plant response rating, Nutsedge, Yellow [8, 16]
100: Plant response rating, Foxtail, Giant [4, 17] | Plant response rating, Lambsquarters [6, 16] | Plant response rating, Lambsquarters [6, 17] | Lambsquarters plant response rating [6, 22] | Plant response rating, Morningglory [7, 16] | Plant response rating, Morningglory [7, 17] | Morningglory plant response rating [7, 22] | Plant response rating, Pigweed [10, 16] | Plant response rating, Pigweed [10, 17] | Pigweed plant response rating [10, 22] | Plant response rating, Velvetleaf [11, 17] | Plant response rating, Waterhemp [12, 16] | Plant response rating, Waterhemp [12, 17] | Waterhemp plant response rating [12, 22] | Plant response rating, Oat, Wild [14, 24]
95: Foxtail, Giant plant response rating [4, 22] | Plant response rating, Oat, Wild [14, 23]
45: Plant response rating, Crabgrass, Large [3, 16]
20: Kochia plant response rating (kochia (Kochia scoparia); [25])
75: Plant response rating, Velvetleaf [11, 16]
80: Plant response rating, Kochia (kochia (Kochia scoparia); [24]) | Oat, Wild plant response rating [14, 25]

— patent US10597388B2, “Pyridazinone herbicides” (FMC CORPORATION, priority 2014, dated 2020)
